Here are results for eleven molecules from patent US5527907A, “Macrolide immunomodulators” (Abbott Laboratories, priority 1994, dated 1996).

Test [1] has as its system adjuvant arthritis. The note with it: model for rheumatoid arthritis; cited from earlier work.
The subject of test [2] is FKBP-12. The note with it: cited from earlier work.
The conditions of test [3]: alone or in combination with picibanil; cited from earlier work.
In test [4] the test system is experimental allergic encephalomyelitis. The note with it: model for multiple sclerosis; cited from earlier work.
In test [5] the test system is organ grafts in histoincompatible rodents. The settings on record: cited from earlier work.
Test [6] deals with Candida albicans. The note with it: particularly against Candida albicans, both in vitro and in vivo; cited from earlier work.
In test [7] the test system is formation of IgE-like antibodies. The note with it: cited from earlier work.
Test [8] has as its system T-cell activation. The settings on record: cited from earlier work.
In test [9] the test system is human mixed lymphocyte reaction. The test can be described thus: human mixed lymphocyte reaction (MLR) assay. The class given is cell-based. The protocol: The immunosuppressant activity of the compounds of the present invention was determined using the human mixed lymphocyte reaction (MLR) assay described by Kino, T. et al. in Transplantation Proceedings, XIX(5):36-39,Suppl. 6 (1987).

The mark [10] stands for this setting: Mixed Leukocyte Response (MLR), Table 1, read-out: IC50.

Like-named read-outs stand apart in the source and are kept apart here.

`CO[C@H]1C[C@@H]2CC[C@@H](C)[C@@](O)(O2)C(=O)C(=O)N2CCCC[C@H]2C(=O)O[C@H]([C@H](C)C[C@@H]2CC[C@@H](O)[C@H](OC)C2)CC(=O)[C@H](C)/C=C(\C)[C@@H](O)[C@@H](OC)C(=O)[C@H](C)C[C@H](C)/C=C/C=C/C=C/1C` [rapamycin]: the “effectiveness as an immunosuppressant” value in [1] and in test [4] was “effective as an immunosuppressant” throughout. The “binding to FKBP-12” value in test [2] is recorded as “binds to FKBP-12”. Moreover, the antitumor activity entry in test [3] is “antitumor activity”. Also, the “survival time of organ grafts” value in [5] is “prolong survival time of organ grafts”. In [6], the antifungal activity result is on record as “antifungal activity”. Further, the “inhibition of formation of IgE-like antibodies” value in test [7] is “effectively inhibit the formation of IgE-like antibodies”. Moreover, in test [8], the “inhibition of T-cell activation” value was “inhibit T-cell activation”.

On to `CO[C@H]1C[C@@H]2CC[C@@H](C)[C@@](O)(O2)C(=O)C(=O)N2CCCC[C@H]2C(=O)O[C@H]([C@H](C)C[C@@H]2CC[C@@H](OC(=O)N(C)OC)[C@H](OC)C2)CC(=O)[C@H](C)/C=C(\C)[C@@H](O)[C@@H](OC)C(=O)[C@H](C)C[C@H](C)/C=C/C=C/C=C/1C` [Example 17], for which, in [9] (setting [10]), the IC50 came to 0.15 nM.

As for `CO[C@H]1C[C@@H]2CC[C@@H](C)[C@@](O)(O2)C(=O)C(=O)N2CCCC[C@H]2C(=O)O[C@H]([C@H](C)C[C@@H]2CC[C@H](N=[N+]=[N-])[C@H](OC)C2)CC(=O)[C@H](C)/C=C(\C)[C@@H](O)[C@@H](OC)C(=O)[C@H](C)C[C@H](C)/C=C/C=C/C=C/1C` [Example 50], in test [9] (setting [10]), the half-inhibitory concentration (IC50) is 0.96 nM.

Regarding `CO[C@H]1C[C@@H]2CC[C@@H](C)[C@@](O)(O2)C(=O)C(=O)N2CCCC[C@H]2C(=O)O[C@H]([C@H](C)C[C@@H]2CC[C@H](Sc3ncc[nH]3)[C@H](OC)C2)CC(=O)[C@H](C)/C=C(\C)[C@@H](O)[C@@H](OC)C(=O)[C@H](C)C[C@H](C)/C=C/C=C/C=C/1C` [Example 38], the IC50 in test [9] (setting [10]) was 0.03 nM.

For the molecule `CO[C@H]1C[C@@H]2CC[C@@H](C)[C@@](O)(O2)C(=O)C(=O)N2CCCC[C@H]2C(=O)O[C@H]([C@H](C)C[C@@H]2CC[C@H](n3ccc(=O)cc3)[C@H](OC)C2)CC(=O)[C@H](C)/C=C(\C)[C@@H](O)[C@@H](OC)C(=O)[C@H](C)C[C@H](C)/C=C/C=C/C=C/1C` [Example 71], in test [9] (setting [10]), the 50% inhibitory concentration (IC50) was found to be 0.12 nM.

Consider `CO[C@H]1C[C@@H]2CC[C@@H](C)[C@@](O)(O2)C(=O)C(=O)N2CCCC[C@H]2C(=O)O[C@H]([C@H](C)C[C@@H]2CC[C@@H](OC(=O)N3CCOCC3)[C@H](OC)C2)CC(=O)[C@H](C)/C=C(\C)[C@@H](O)[C@@H](OC)C(=O)[C@H](C)C[C@H](C)/C=C/C=C/C=C/1C` [Example 3], for which the IC50 in [9] (setting [10]) came out at 0.13 nM.

Turning to `CO[C@H]1C[C@@H]2CC[C@@H](C)[C@@](O)(O2)C(=O)C(=O)N2CCCC[C@H]2C(=O)O[C@H]([C@H](C)C[C@@H]2CC[C@H](OC)[C@H](OC)C2)CC(=O)[C@H](C)/C=C(\C)[C@@H](O)[C@@H](OC)C(=O)[C@H](C)C[C@H](C)/C=C/C=C/C=C/1C` [Example 74], in test [9] (setting [10]), the IC50 worked out at 1.81 nM.

As for `CO[C@H]1C[C@@H]2CC[C@@H](C)[C@@](O)(O2)C(=O)C(=O)N2CCCC[C@H]2C(=O)O[C@H]([C@H](C)C[C@@H]2CC[C@H](Sc3nccn3C)[C@H](OC)C2)CC(=O)[C@H](C)/C=C(\C)[C@@H](O)[C@@H](OC)C(=O)[C@H](C)C[C@H](C)/C=C/C=C/C=C/1C` [Example 39], the IC50 in [9] (setting [10]) is 0.14 nM.

Consider `CO[C@H]1C[C@@H]2CC[C@@H](C)[C@@](O)(O2)C(=O)C(=O)N2CCCC[C@H]2C(=O)O[C@H]([C@H](C)C[C@@H]2CC[C@H](O)[C@H](OC)C2)CC(=O)[C@H](C)/C=C(\C)[C@@H](O)[C@@H](OC)C(=O)[C@H](C)C[C@H](C)/C=C/C=C/C=C/1C` [Example 10, 42-epi-rapamycin], for which the IC50 in test [9] was 0.03 nM.

Turning to `C=CC[C@@H]1/C=C(\C)C[C@H](C)C[C@H](OC)[C@H]2O[C@@](O)(C(=O)C(=O)N3CCCC[C@H]3C(=O)O[C@H](/C(C)=C/[C@@H]3CC[C@@H](O)[C@H](OC)C3)[C@H](C)[C@@H](O)CC1=O)[C@H](C)C[C@@H]2OC` [FK-506], the “binding to FKBP-12” value in test [2] is on record as “binds to FKBP-12”.

As for `CO[C@H]1C[C@@H]2CC[C@@H](C)[C@@](O)(O2)C(=O)C(=O)N2CCCC[C@H]2C(=O)O[C@H]([C@H](C)C[C@@H]2CC[C@H](n3ccccc3=O)[C@H](OC)C2)CC(=O)[C@H](C)/C=C(\C)[C@@H](O)[C@@H](OC)C(=O)[C@H](C)C[C@H](C)/C=C/C=C/C=C/1C` [Example 72], the half-inhibitory concentration (IC50) in test [9] (setting [10]) is 0.99 nM.

In general, IC50 refers to the midpoint of a concentration-inhibition curve.
